The values that follow come from patent publication US20110319340A1, “METHODS FOR TREATING CANCER” (The Board of Regents, The University of Texas System, priority 2008, published 2011).

Holding throughout (type): cell-based
The test system of assay [1] is bovine aortic endothelial cells. In words: Binding of KML4A colon cancer cells to bovine aortic endothelial cell monolayers. As to conditions: TNF alpha 50 ng/ml for 24 hours; binding after 30 minutes.
Experimental: In this experiment, bovine aortic endothelial cells (BAEC; Cambrex BioScience; Walkersville, Md.) were plated in 24-well plastic tissue culture plates (BD Falcon™) at a density of 35,000 cells per cm^2 and cultured in endothelial cell basal medium (EBM) with 2% fetal bovine serum (FBS) and growth factors (SingleQuots™, Clonetics, San Diego, Calif.) in 5% CO2 at 37° C. for three days. BAEC monolayer cultures were then pretreated with saline (Control) or TP508 (TP) and then treated with saline or TNF alpha (TNF, 50 ng/ml) for 24 hours. KML4A cells were labeled with fluorescent CytoTracker™ as described in Example 1 above and added to the BAEC monolayers in EBM medium complete with fetal bovine serum and SingleQuot growth factor supplements (30,000 cells per well). After thirty (30) minutes, the cell monlayers were rinsed two times to remove unbound KML4A cells and the monolayers were solubilized using 200 μl of Cell Solubilizing Solution (Cell Biolabs, Inc.). Fluorescence of the solubilized KML4A that had bound to the endothelial cells was measured by transferring aliquots of the solubilized monolayers to 96-well black plates and reading them in a SyQuest BioLabs Fluorescent Plate Reader (480 nm/520 nm). Data is expressed as Relative Fluorescence Units.
The test system of assay [2] is human microvascular endothelial cells. In words: Phase contrast micrographs of human microvascular endothelial cells co-incubated with KML4A cells. As to conditions: after 22 hours; TP508 50 μg/ml 8 hours pretreatment; thrombin 2 U/ml or TNF alpha 5 ng/ml 16 hours. As for the experimental part: Human microvascular endothelial cells (Cambrex BioScience; Walkersville, Md.) were plated on 48-well tissue culture plates (BD Falcon) 30,000 cells per well, and cultured in endothelial cell basal medium (EBM) with 2% fetal bovine serum (FBS) and growth factors (SingleQuots™, Clonetics, San Diego, Calif.) in 5% CO2 at 37° C. for three days. […] Photomicrographs were captured at various times after addition of KML4A cells using an inverted Leitz Diavert microscope (original magnification, 200×) equipped with Spot Idea™ digital camera (Diagnostic Instruments, Inc.). Micrographs were taken at the center of each well to avoid any differences in original cell density.

Assay [3] has as its system metastasis associated in colon cancer 1 (MACC1). The assay can be described thus: Gene array analysis of MACC1 mRNA in human coronary artery endothelial cells. The note with it: TNF alpha 5 ng/ml, 6 hours. As for the experimental part:
(§1) Human coronary artery endothelial cells (Cambrex BioScience; Walkersville, Md.) were split into T-75 flasks (BD Falcon) and cultured in endothelial cell basal medium (EBM) with 2% fetal bovine serum (FBS) and growth factors (SingleQuotsTM, Clonetics, San Diego, Calif.) in 5% CO2 at 37° C. […] After 6 hours of incubation, total RNA was isolated using RNAqueous kits (Ambion, Austin, Tex.) as described by the manufacturer. mRNA samples were reverse-transcribed using Taqman Reverse Transcription Reagents Kits (Applied Biosystems, Inc.) and analyzed by gene array analysis using […] plus 2 chip sets (Affimetrix). All procedures and analysis of gene array data were performed in the UTMB Molecular Genomics and MicroArray Core Facility.

For assay [4], the system named is melanoma cell adhesion molecule (MCAM). The assay can be described thus: Gene array analysis of MCAM expression in human coronary artery endothelial cells. The note with it: TNF alpha 5 ng/ml, 6 hours. As for the experimental part: as §1
In the next assay the test system is snail homolog 3 (SNAI3). The assay can be described thus: Gene array analysis of SNAI3 expression in human coronary artery endothelial cells. The note with it: TNF alpha 5 ng/ml, 6 hours. As for the experimental part: as §1, with “(Affimetrix).” for “(Affimetrix). All procedures and analysis of gene array data were performed in the UTMB Molecular Genomics and MicroArray Core Facility.”

Assay [5] relates to bone morphogenetic protein 9 (BMP9). The assay can be described thus: Gene array analysis of BMP9 expression in human coronary artery endothelial cells. As to conditions: TP508 50 μg/ml or TNF alpha 5 ng/ml, 6 hours. As for the experimental part: Human coronary artery endothelial cells (Cambrex BioScience; Walkersville, Md.) were split into T-75 flasks (BD Falcon) and cultured in endothelial cell basal medium (EBM) with 2% fetal bovine serum (FBS) and growth factors (SingleQuotsTM, Clonetics, San Diego, Calif.) in 5% CO2 at 37° C. […] All procedures and analysis of gene array data were performed in the UTMB Molecular Genomics and MicroArray Core Facility.

Assay [6] has as its system human umbilical vein endothelial cells. In words: Transendothelial migration of KML4A tumor cells through human umbilical vein endothelial cell monolayer. As to conditions: thrombin 2 U/ml for 24 hours; migration after 18 hr.
Text: In this experiment, as in Example 1, KML4A tumor cells derived from a human colon cancer and selected for repeated metastasis to the liver (Morikawa et al., supra) were harvested from established cultures and labeled with fluorescent CytoTracker™ (Cell Biolabs, inc.) and re-established as a uniform cell suspension. Human endothelial cell monolayers were established in transmembrane inserts supplied by Cell Biolabs, Inc., by plating 50,000 human umbilical vein endothelial cells (Cambrex BioScience; Walkersville, Md.) per insert and culturing them in endothelial cell basal medium (EBM) with 2% fetal bovine serum (FBS) and growth factors (SingleQuots™, Clonetics, San Diego, Calif.) in 5% CO2 at 37° C. for three days. […] Fluorescently labeled KML4A tumor cells (35,000 cells per insert in serum-free medium containing 1% bovine serum albumin) were then added to the culture inserts and the inserts placed into wells of a 24-well tissue culture plate (BD Falcon) with 0.5 ml of growth medium containing 10% fetal bovine serum to act as a chemoatractant for the tumor cells. The number of cells migrating through the filter inserts to the filter bottom was determined 18 hr later by measuring the fluorescence of material recovered from the filter bottom using a SyQuest BioLabs Fluorescent Plate Reader (480 nm/529 nm). Data is expressed as Relative Fluorescence Units.
Assay [7] shares this test system. In words: Phase contrast micrographs of human umbilical vein endothelial cells co-incubated with KML4A cells. The note with it: after 22 hours; thrombin 2 U/ml 16 hours, with or without TP508 50 μg/ml 8 hours pretreatment. The source says: Photomicrographs were captured at various times after addition of KML4A cells using an inverted Leitz Diavert microscope (original magnification, 200×) equipped with Spot Idea™ digital camera (Diagnostic Instruments, Inc.). Micrographs were taken at the center of each well to avoid any differences in original cell density.

Consider TNF alpha, for which, in assay [1], the “increase of binding of KML4A cells” value is listed as “approximately 8 fold”. Besides, the “endothelial cell damage and loss after co-incubation with KML4A cells” value in assay [2] was “damaged and released from the culture substrate”. For the same substance, the “effect on endothelial cell expression of MACC1 mRNA” value in assay [3] is recorded as “increases endothelial cell expression of MACC1”. Also, in assay [4], the “effect on endothelial cell expression of MCAM” value is recorded as “increases endothelial cell expression of MCAM”. In addition, the “effect on endothelial cell expression of SNAI3” value with snail homolog 3 (SNAI3) was “increases endothelial cell expression of SNAI3”. In addition, the “effect on expression of BMP9” value in assay [5] is given as “does not”.
Regarding Thrombin, the “effect on KML4A transedothelial migration” value in assay [6] is “increased transedothelial migration”. In assay [2], the “endothelial cell damage and loss after co-incubation with KML4A cells” value was “damaged and released from the culture substrate”. The “endothelial cells remaining after co-incubation with KML4A cells” value in assay [7] is “few if any remaining endothelial cells”.
